# pKi: −log10 of the molar value.
# Assays:
# [1] = Inhibition of human tryptase-beta using chromogenic substrate S-2366 after 30 mins by spectrophotometry
# [2] = test system: semicarbazide-sensitive amine oxidase (SSAO); experiment: Chemical stability in presence of 56 ug/mL of human recombinant semicarbazide-sensitive amine oxidase assessed as compound remaining after 24 hrs by LC/MS method; assay type: physicochemical; conditions: read-out: Stability
# [3] = Metabolic stability in human liver microsomes after 20 mins; assay type: ADME, Microsome; conditions: read-out: Stability
# [4] = Metabolic stability in guinea pig liver microsomes after 20 mins; assay type: ADME, Cavia porcellus, Microsome; conditions: read-out: Stability
# [5] = Metabolic stability in rat liver microsomes after 20 mins; assay type: ADME, Microsome; conditions: read-out: Stability
# hERG (KCNH2) = hERG (KCNH2) (Homo sapiens, UniProt Q12809); experiment: Inhibition of human ERG at 10 uM
# Cytochrome P450 3A4 = Cytochrome P450 3A4 (Homo sapiens, UniProt P08684); experiment: Inhibition of CYP3A4; assay type: ADME
# Sequence of Cytochrome P450 3A4 (P08684 whole entry): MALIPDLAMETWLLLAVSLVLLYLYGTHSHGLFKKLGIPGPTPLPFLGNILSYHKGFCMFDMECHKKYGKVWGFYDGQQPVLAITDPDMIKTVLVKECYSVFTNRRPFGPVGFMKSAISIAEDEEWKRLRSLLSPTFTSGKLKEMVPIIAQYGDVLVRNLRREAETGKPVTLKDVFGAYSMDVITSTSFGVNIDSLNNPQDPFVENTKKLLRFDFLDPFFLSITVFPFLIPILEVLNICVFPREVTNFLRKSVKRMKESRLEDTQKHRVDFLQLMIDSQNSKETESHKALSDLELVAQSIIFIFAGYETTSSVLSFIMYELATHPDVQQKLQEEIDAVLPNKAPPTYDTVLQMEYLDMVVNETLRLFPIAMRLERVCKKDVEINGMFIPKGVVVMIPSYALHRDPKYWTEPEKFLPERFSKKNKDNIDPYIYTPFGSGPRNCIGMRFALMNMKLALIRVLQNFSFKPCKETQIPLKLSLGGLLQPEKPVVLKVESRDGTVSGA
# Sequence of hERG (KCNH2) (Q12809 whole entry): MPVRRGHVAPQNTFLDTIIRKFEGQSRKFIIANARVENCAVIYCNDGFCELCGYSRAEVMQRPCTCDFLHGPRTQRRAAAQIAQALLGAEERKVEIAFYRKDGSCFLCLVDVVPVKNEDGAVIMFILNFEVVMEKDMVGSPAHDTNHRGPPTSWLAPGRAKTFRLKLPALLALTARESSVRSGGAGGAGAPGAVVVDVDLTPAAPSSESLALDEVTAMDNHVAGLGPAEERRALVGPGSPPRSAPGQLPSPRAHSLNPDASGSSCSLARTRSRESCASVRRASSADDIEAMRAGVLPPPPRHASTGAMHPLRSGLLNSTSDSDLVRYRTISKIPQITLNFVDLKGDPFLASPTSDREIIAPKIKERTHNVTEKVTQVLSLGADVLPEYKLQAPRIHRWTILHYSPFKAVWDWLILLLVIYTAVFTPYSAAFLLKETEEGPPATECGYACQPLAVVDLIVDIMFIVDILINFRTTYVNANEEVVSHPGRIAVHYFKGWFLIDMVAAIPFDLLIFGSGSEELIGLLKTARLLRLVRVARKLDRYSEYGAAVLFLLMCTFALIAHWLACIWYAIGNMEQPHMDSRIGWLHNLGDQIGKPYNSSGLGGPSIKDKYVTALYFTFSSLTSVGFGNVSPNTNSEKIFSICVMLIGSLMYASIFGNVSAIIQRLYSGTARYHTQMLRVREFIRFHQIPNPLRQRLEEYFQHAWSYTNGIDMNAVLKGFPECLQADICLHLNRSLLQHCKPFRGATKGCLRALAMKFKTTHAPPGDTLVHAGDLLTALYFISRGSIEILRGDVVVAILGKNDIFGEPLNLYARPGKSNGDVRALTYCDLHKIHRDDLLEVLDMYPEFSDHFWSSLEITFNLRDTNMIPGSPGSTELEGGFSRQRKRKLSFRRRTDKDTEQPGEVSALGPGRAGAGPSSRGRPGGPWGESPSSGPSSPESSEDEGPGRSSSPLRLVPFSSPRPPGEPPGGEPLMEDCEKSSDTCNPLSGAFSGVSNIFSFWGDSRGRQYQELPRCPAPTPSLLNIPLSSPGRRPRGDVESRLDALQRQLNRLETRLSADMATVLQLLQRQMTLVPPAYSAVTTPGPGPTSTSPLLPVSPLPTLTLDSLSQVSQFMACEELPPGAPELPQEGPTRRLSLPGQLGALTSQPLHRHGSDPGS
SMILES,pKi [1],remaining at 24 h [2] [%],remaining at 20 min [3] [%],remaining at 20 min [4] [%],remaining at 20 min [5] [%],inhibition at 10 µM (hERG (KCNH2)) [%],INH (Cytochrome P450 3A4) [µM]
COCCn1cc(C(=O)N2CCC(c3cc(CN)ccc3F)CC2)c2c(C(=O)N(C)C)cccc21.Cl,7.70,100,67,69,92,16,> 30
COCCn1cc(C(=O)N2CCC(c3cc(CN)ccc3F)CC2)c2ccccc21,7.27,67,–,–,–,–,–

# Reference: ChEMBL document CHEMBL1268849, “A conformationally constrained inhibitor with an enhanced potency for β-tryptase and stability against semicarbazide-sensitive amine oxidase (SSAO)” (Bioorg Med Chem Lett, 2010)
